Results on five compounds are retold here after patent publication EP4268800A1 (Prescience Biotechnology Inc., priority 2022, dated 2023).

One data set concerns CT26 model. Kind of data set: Mouse colon cancer model. The settings on record: 5-FU 25 mg/kg, RAP-E 25 mg/kg. The class given is in vivo, Balb/c mice.
A short description of data set [1]: LD50 of previous intravenous injection formulation, converted to mice. The settings on record: mouse, in vivo, equivalent of the rat value in mice, read-out: lethal dosage 50% (LD50), equivalent in mice.
The conditions of data set [2]: previous intravenous injection formulation, in rats; cited from earlier work.
The test system of another data set is SKOV3 xenograft. Kind of data set: Xenograft ovarian tumor in mice. It is filed as in vivo, NOD/SCID mice. Particulars: docetaxel 4 mg/kg, RAP-E 50 mg/kg. From the text: Akt and mTOR phosphorylation are frequently detected in ovarian cancer, and SKOV3, an ovarian cancer cell line, is resistant to cis-platinum and doxorubicin.
For data set [3] the following is noted: cited from earlier work.

The structures appear in SMILES notation. Where two headings read alike, the source gives them in different places.

Method for CT26 model: CT26 model on Balb/c mice was used as another animal model, classified as three groups: a control group (no drug), a comparative group (administration of 5-FU, dose: 25 mg/kg, Q3d^∗4) and the inventive group (administration of RAP-E formulation, dose: 25 mg/kg, Q3d^∗4). 6 week old Balb/c mice (BioLasco, Ilan, Taiwan) were inoculated subcutaneously with 1^∗10^5 CT26 cells (murine colorectal carcinoma cell). Following tumor inoculation, measuring the tumor size twice a week, and starting treatment when the tumor grows to 80-100 mm^3.

`O=c1[nH]cc(F)c(=O)[nH]1` [5-FU]: in the data set on CT26 model (Q3d*4), the Mean inhibition rate is 11% and the “body weight change / toxicity” value was “significant weight loss”. The “Day 16 tumor inhibition rate” value in the data set on CT26 model (Q3d*4, day 16) stood at 26%. By LD50 is commonly meant the dose expected to kill half of the subjects tested. Regarding `CO[C@H]1C[C@@H]2CC[C@@H](C)[C@@](O)(O2)C(=O)C(=O)N2CCCC[C@H]2C(=O)O[C@H]([C@H](C)C[C@@H]2CC[C@@H](O)[C@H](OC)C2)CC(=O)[C@H](C)/C=C(\C)[C@@H](O)[C@@H](OC)C(=O)[C@H](C)C[C@H](C)/C=C/C=C/C=C/1C` [Rapamycin], the LD50 in data set [1] turned out to be 80 mg/kg. In data set [2], the “lethal dosage 50% (LD50)” value is recorded as 40 mg/kg. `CC(=O)O[C@@]12CO[C@@H]1C[C@H](O)[C@@]1(C)C(=O)[C@H](O)C3=C(C)[C@@H](OC(=O)[C@H](O)[C@@H](NC(=O)OC(C)(C)C)c4ccccc4)C[C@@](O)([C@@H](OC(=O)c4ccccc4)[C@H]21)C3(C)C` [docetaxel] displayed a Mean inhibition rate in the data set on SKOV3 xenograft (Q3d*4) of 53%. Moreover, the “Day 39 tumor inhibition rate” value with SKOV3 xenograft (Q3d*4, day 39) was 57%. As to `CO[C@H]1C[C@@H]2CC[C@@H](C)[C@@](O)(O2)C(=O)C(=O)N2CCCC[C@H]2C(=O)O[C@H]([C@H](C)C[C@@H]2CC[C@@H](OCCO)[C@H](OC)C2)CC(=O)[C@H](C)/C=C(\C)[C@@H](O)[C@@H](OC)C(=O)[C@H](C)C[C@H](C)/C=C/C=C/C=C/1C` [everolimus], in data set [3] (in a tablet form), the bioavailability is reported as ~ 20%. For the compound `CO[C@H]1C[C@@H]2CC[C@@H](C)[C@@](O)(O2)C(=O)C(=O)N2CCCC[C@H]2C(=O)O[C@H]([C@H](C)C[C@@H]2CC[C@@H](OC(=O)C(C)(CO)CO)[C@H](OC)C2)CC(=O)[C@H](C)/C=C(\C)[C@@H](O)[C@@H](OC)C(=O)[C@H](C)C[C@H](C)/C=C/C=C/C=C/1C` [temsirolimus], the bioavailability entry in data set [3] (via intravenous infusion) is “up to 100%”.
